The target of test [1] is T1, mouse PDGF-β receptor tyrosine kinase (Mus musculus, UniProt P05622).
T1 construct: amplify a fragment of DNA that codes for the intracellular tyrosine kinase domain; made in house; host or cells: SF9 insect cells (baculovirus)
The test can be described thus: PDGF receptor tyrosine kinase assay (32P incorporation into glutamate-tyrosine co-polymer). It is filed as biochemical. Particulars: read-out: PDGFr-TK IC50. An outline of the steps: (§1)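 32P transfer from γ32P-ATP (50 µM ATP) to poly(Glu,Tyr) 4:1 was measured over 10 min at 25°C and counted after TCA precipitation onto filters, minus the no-enzyme background. Enzyme was baculovirus/SF9 lysate of the kinase domain, preincubated 10 min with inhibitor in Hepes pH 7.0, MnCl2, vanadate.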

Test [2] addresses T2, Human EGF receptor tyrosine kinase (Homo sapiens, UniProt P00533).
T2 construct: Human EGF receptor tyrosine kinase was isolated from A431 epidermoid carcinoma cells; endogenous in cells; host or cells: A431 epidermoid carcinoma cells
Description: EGF receptor tyrosine kinase enzyme assay (substrate peptide phosphorylation). Particulars: for IC50: read-out: EGF-FL IC50. Format: biochemical.

In test [3] the target is T3, human FGF-1 (flg) receptor tyrosine kinase (Homo sapiens, UniProt P11362).
T3 construct: amplify a fragment of DNA that codes for the intracellular tyrosine kinase domain; made in house; host or cells: SF9 insect cells (baculovirus)
Description: FGF receptor tyrosine kinase assay (32P incorporation into glutamate-tyrosine co-polymer). Format: biochemical. An outline of the steps: as §1

A further test relates to SW-620. Description: Soft agar colony formation, human colon adenocarcinoma cells. It is filed as cell-based. Particulars: SW-620, 336 h, colony formation in 0.3% soft agar, generally 2 weeks, read-out: Inhibition of Human Colon Adenocarcinoma IC50, SW-620. As for the experimental part:
(§2) Three such human cell lines were identified as HCT-8, SW-620, and HT-29. In a typical assay, the cells are suspended in 0.3% soft agar containing an invention compound at various concentration levels, and are plated into six-well plates, each plate containing a 1% agar plug. The cell plates are incubated at 37°C in a humidified carbon dioxide (5%) incubator, generally for 2 weeks. At the end of the incubation period, colonies of cells are detected by staining the wells with 1 mg/mL of p-iodonitrotetrazolium violet. The cells are counted on an optical colony counter. […] TABLE III. Inhibition of Human Colon Adenocarcinoma IC50 (µM)

For a further test, the system named is HCT-8. Described as above. It is filed as cell-based. Particulars: HCT-8, 336 h, read-out: Inhibition of Human Colon Adenocarcinoma IC50, HCT-8. As for the experimental part:
as §2

Another test concerns HT-29. Described as above. It is filed as cell-based. Conditions: HT-29, 336 h, colony formation in 0.3% soft agar, generally 2 weeks, read-out: Inhibition of Human Colon Adenocarcinoma IC50, HT-29. The procedure:
as §2

Another test concerns the target T4, C-src kinase (Homo sapiens, UniProt P12931).
T4 construct: made in house; host or cells: baculovirus infected insect cells
Description: C-src kinase assay (poly GluTyr substrate). Format: biochemical. Particulars: read-out: C-src TK IC50.

[4] abbreviates: colony formation in 0.3% soft agar, generally 2 weeks.

This note sets out measurements from EP0823908B1, “PYRIDO[2,3-d]PYRIMIDINES FOR INHIBITING PROTEIN TYROSINE KINASE MEDIATED [sequence] PROLIFERATION” (Warner-Lambert Company LLC, priority 1995, dated 1996).

Like-named read-outs stand apart in the source and are kept apart here.

T4 sequence (P12931 whole entry): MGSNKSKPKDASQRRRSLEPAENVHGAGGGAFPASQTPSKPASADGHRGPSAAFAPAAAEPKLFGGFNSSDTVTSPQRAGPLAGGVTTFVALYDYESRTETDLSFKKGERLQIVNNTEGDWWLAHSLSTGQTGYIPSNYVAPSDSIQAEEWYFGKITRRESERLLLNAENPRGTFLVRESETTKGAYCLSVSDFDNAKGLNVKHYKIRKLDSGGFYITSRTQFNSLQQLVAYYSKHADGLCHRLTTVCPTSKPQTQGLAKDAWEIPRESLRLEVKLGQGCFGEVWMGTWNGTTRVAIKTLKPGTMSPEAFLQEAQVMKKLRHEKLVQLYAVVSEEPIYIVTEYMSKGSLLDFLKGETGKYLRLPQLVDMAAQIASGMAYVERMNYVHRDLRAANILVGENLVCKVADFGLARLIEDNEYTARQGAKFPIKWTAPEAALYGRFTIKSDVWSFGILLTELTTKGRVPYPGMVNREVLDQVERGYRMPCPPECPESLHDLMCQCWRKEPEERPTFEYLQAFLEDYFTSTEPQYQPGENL
T3 sequence (P11362 478-767 limits assumed): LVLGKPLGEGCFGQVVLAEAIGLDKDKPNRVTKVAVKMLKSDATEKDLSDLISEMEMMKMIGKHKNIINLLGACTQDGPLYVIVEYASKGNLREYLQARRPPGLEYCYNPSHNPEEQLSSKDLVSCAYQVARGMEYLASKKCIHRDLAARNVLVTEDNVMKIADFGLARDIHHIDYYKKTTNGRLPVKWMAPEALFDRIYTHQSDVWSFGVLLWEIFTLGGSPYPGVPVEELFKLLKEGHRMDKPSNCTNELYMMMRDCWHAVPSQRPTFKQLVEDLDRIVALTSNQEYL
T2 sequence (P00533 25-1210): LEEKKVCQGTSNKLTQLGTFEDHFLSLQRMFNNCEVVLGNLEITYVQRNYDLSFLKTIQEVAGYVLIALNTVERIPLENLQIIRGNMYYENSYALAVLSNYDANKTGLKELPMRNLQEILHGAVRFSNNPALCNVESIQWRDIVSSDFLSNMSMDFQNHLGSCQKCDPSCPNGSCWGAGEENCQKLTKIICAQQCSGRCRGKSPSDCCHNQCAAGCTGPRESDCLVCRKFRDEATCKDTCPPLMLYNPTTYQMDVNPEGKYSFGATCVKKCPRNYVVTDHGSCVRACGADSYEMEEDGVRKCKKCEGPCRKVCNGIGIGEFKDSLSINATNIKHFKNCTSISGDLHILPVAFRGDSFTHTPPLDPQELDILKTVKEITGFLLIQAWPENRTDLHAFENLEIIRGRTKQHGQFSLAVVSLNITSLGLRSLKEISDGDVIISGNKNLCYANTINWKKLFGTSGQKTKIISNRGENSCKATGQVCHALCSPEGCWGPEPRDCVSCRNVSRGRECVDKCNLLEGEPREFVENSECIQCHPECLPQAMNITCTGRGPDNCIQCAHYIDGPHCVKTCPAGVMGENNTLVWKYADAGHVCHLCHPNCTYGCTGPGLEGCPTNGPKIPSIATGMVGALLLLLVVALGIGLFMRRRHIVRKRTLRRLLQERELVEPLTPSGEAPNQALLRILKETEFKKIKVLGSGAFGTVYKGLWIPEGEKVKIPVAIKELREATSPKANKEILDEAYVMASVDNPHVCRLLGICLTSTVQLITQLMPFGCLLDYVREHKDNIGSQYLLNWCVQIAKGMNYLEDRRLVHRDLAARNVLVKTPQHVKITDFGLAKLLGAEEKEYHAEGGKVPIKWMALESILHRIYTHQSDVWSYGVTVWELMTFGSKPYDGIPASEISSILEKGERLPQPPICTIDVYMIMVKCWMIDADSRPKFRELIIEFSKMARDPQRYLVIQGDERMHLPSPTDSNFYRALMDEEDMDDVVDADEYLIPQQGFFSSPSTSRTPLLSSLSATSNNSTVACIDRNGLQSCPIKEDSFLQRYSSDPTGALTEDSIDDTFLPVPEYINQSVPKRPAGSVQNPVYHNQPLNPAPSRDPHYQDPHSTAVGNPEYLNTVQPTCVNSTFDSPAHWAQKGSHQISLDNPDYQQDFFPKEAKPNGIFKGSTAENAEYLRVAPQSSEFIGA
T1 sequence (P05622 599-961 limits assumed): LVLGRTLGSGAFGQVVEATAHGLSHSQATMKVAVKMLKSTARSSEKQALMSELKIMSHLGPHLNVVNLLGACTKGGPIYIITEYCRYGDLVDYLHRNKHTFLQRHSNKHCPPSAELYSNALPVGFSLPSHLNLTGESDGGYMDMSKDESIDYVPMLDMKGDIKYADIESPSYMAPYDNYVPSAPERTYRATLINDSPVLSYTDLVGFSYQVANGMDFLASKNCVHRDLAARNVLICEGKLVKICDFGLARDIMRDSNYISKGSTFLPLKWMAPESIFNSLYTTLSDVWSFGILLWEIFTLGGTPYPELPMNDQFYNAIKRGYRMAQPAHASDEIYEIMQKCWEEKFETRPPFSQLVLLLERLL

Regarding `Cn1c(=O)c(-c2c(Cl)cccc2Cl)cc2cnc(Nc3ccc4c(c3)OCO4)nc21` [Example 57, 2-(Benzo[1,3]dioxol-5-ylamino)-6-(2,6-dichlorophenyl)-8-methyl-8H-pyrido[2,3-d]pyrimidin-7-one], the IC50 in test [1] came to 440 nM; in test [2], 89 nM; in test [3] (read-out: FGFr-TK IC50), 646 nM; with SW-620 it was 520 nM; in the test on HCT-8 (setting [4]), 250 nM; in the test with HT-29, 740 nM. The IC50 at C-src kinase came to 50 nM.
On to `CN1CCN(CCCNc2ncc3cc(-c4c(Cl)cccc4Cl)c(=O)n(C)c3n2)CC1` [Example 38, 6-(2,6-Dichlorophenyl)-8-methyl-2-[3-(4-methylpiperazin-1-yl)-propylamino]-8H-pyrido[2,3-d]pyrimidin-7-one], for which the IC50 in test [1] amounted to 1090 nM; in test [2], 8700 nM; in test [3], 230 nM; with HCT-8, 3150 nM; on C-src kinase, 3 nM.
In the case of `CCn1c(=O)c(-c2c(Cl)cccc2Cl)cc2cnc(Nc3ccccc3)nc21` [Example 69, 6-(2,6-Dichloropherlyl)-8-ethyl-2-pherlylamino-8H-pyrido[2,3-d]pyrimidin-7-one], the IC50 in test [1] came to 593 nM; in test [2] it was 120 nM; in test [3] (read-out: FGFr-TK IC50), 214 nM; in the test with HT-29, 1110 nM; at C-src kinase, 79 nM.
Take `Cc1ccc(Nc2ncc3cc(-c4c(Cl)cccc4Cl)c(=O)n(C)c3n2)cc1` [Example 63, 6-(2,6-Dichlorophenyl)-8-methyl-2-p-tolylamino-8H-pyrido[2,3-d]pyrimidin-7-one]: the IC50 in test [1] worked out at 1010 nM; in test [2] it was 140 nM; in test [3] (read-out: FGFr-TK IC50), 1050 nM; in the test with HCT-8 (setting [4]), 1000 nM.
As to `CCn1c(=O)c(-c2c(Cl)cccc2Cl)cc2cnc(NCCCN3CCN(C)CC3)nc21` [Example 70, 6-(2,6-Dichlorophenyl)-8-ethyl-2-[3-(4-methyl-piperazin-1-yl)-propylamino]-8H-pyrido[2,3-d]pyrimidin-7-one], the IC50 is 475 nM in test [1], 109 nM in test [3] (read-out: FGFr-TK IC50), 3500 nM with HT-29 and 70 nM at C-src kinase.
As for `Cn1c(=O)c(-c2c(Cl)cccc2Cl)cc2cnc(Nc3ccc(Cl)cc3)nc21` [Example 56, 2-(4-Chlorophenylamino)-6-(2,6-dichlorophenyl)-8-methyl-8H-pyrido[2,3-d]pyrimidin-7-one], the IC50 in test [1] is 1680 nM; in test [3] (read-out: FGFr-TK IC50), 3010 nM; with SW-620, 1100 nM; on C-src kinase it was 70 nM.
In the case of `COC(=O)Cc1ccc(Nc2ncc3cc(-c4c(Cl)cccc4Cl)c(=O)n(C)c3n2)cc1` [Example 84, {4-[6-(2,6-Dichlorophenyl)-8-methyl-7-oxo-7,8-dihydro-pyrido[2,3-d]pyrimidin-2-ylamino]phenyl]-acetic acid, methyl ester], the IC50 in test [1] amounted to 390 nM; in test [2], 630 nM; in test [3] (read-out: FGFr-TK IC50), 250 nM; at C-src kinase, 23 nM.
On to `Cn1c(=O)c(-c2c(Cl)cccc2Cl)cc2cnc(NCCO)nc21` [Example 43, 6-(2,6-Dichlorophenyl)-2-(2-hydroxyethylamino)-8-methyl-8H-pyrido[2,3-d]pyrimidin-7-one], for which the IC50 in test [1] was determined as 5350 nM; in test [3] (read-out: FGFr-TK IC50), 1350 nM; at C-src kinase it was 325 nM. In addition, the inhibition at 50 µM in test [2] (read-out: EGF-FL % Inhibition at 50 µM) was 67%.
